Source: patent EP0033789A1, “2-alpha-Methyl-dopaminimino-6,7-dihydroxy-1,2,3,4-tetrahydronaphthalene, its salts, and a process for preparation thereof” (priority 1980, dated 1981)
Like-named read-outs stand apart in the source and are kept apart here.

Test system: anesthetized, open-chested dogs
Assay: Inotropic, chronotropic and pressor/depressor activities in anesthetized, open-chested dogs (Walton-Brodie strain gauge, ventricular and aortic catheters)
Assay type: in vivo
Details: for ED50 / ED (75% increase) / ED (100% increase) / ED (150% increase): Canis lupus familiaris; for ED50: read-out: Inotropic Potency CF50; for ED (75% increase): read-out: Inotropic Potency dP/dt75; for ED (100% increase): read-out: Inotropic Potency CF100; for ED (150% increase): read-out: Inotropic Potency dP/dt150; for Cardioselectivity: Change in diastolic blood pressure obtained at CF50 / Inotropic Selectivity: Change in heart rate obtained at CF50: at the dose giving 50% increase in cardiac contractile force; for Cardioselectivity: Change in diastolic blood pressure obtained at dP/dt75 / Inotropic Selectivity: Change in heart rate obtained at dP/dt75: at the dose giving 75% increase in left ventricular dP/dt; for Cardioselectivity: Change in diastolic blood pressure obtained at CF100 / Inotropic Selectivity: Change in heart rate obtained at CF100: at the dose giving 100% increase in cardiac contractile force; for Cardioselectivity: Change in diastolic blood pressure obtained at dP/dt150 / Inotropic Selectivity: Change in heart rate obtained at dP/dt150: at the dose giving 150% increase in left ventricular dP/dt
Experimental: The following tests were conducted: • In anesthetized, open-chested dogs, instrumented with a Walton-Brodie strain gauge to measure cardiac contractile force, a ventricular catheter to measure left ventricular dP/dt and an aortic catheter to measure diastolic blood pressure and heart rate. Contractile force and L.V. dP/dt are indices of cardiac contractility and provide information on the inotropic state of the heart. The experimental standard drugs are compared by normalizing pressor/depressor and heart rate responses to a given inotropic effect. Cardioselective inotropic agents will produce minimal diastolic pressure changes for any given inotropic effect. Likewise, inotropic selective agents will produce minimal heart rate changes for any given inotropic effect.

[1] = dose required to produce 50% increase in cardiac contractile force (CF), means ± SEM
[2] = dose required to produce 75% increase in left ventricular dP/dt, means ± SEM
[3] = dose required to produce 100% increase in cardiac contractile force (CF), means ± SEM
[4] = dose required to produce 150% increase in left ventricular dP/dt, means ± SEM

Row | Compound | ED50 [1] [µg/kg] | ED (75% increase) [2] [µg/kg] | ED (100% increase) [3] [µg/kg] | ED (150% increase) [4] [µg/kg] | Cardioselectivity: Change in diastolic blood pressure obtained at CF50 (means ± SEM) [mm Hg] | Inotropic Selectivity: Change in heart rate obtained at CF50 (means ± SEM) [BPM] | Cardioselectivity: Change in diastolic blood pressure obtained at dP/dt75 (means ± SEM) | Inotropic Selectivity: Change in heart rate obtained at dP/dt75 (means ± SEM) [BPM] | Cardioselectivity: Change in diastolic blood pressure obtained at CF100 (means ± SEM) [mm Hg] | Inotropic Selectivity: Change in heart rate obtained at CF100 (means ± SEM) [BPM] | Cardioselectivity: Change in diastolic blood pressure obtained at dP/dt150 (means ± SEM) [mm Hg] | Inotropic Selectivity: Change in heart rate obtained at dP/dt150 (means ± SEM) [BPM] | ED50 [µg/kg] | ED (100% increase) [µg/kg] | ED (75% increase) [µg/kg] | ED (150% increase) [µg/kg]
1 | NCCc1ccc(O)c(O)c1 [E, 4-(2-aminoethyl)-1,2-benzenediol] | 9.1 ± 1 | 9.9 ± 0.7 | 19.6 ± 2.7 | 23.7 ± 3 | -20 ± 6 | 5 ± 5 | -20 ± 7 mm Hg | 5 ± 6 | -12 ± 9 | 12 ± 5 | -10 ± 8 | 13 ± 6 | – | – | – | –
2 | CC(C)NCC(O)c1ccc(O)c(O)c1 (stereo not shown) [F, 4-(1-hydroxy-2-((1-methylethyl)-amino)ethyl)-1,2-benzenediol] | – | 0.04 ± 0.01 | 0.09 ± 0.02 | 0.14 ± 0.05 | -6 ± 2 | 14 ± 2 | -6 ± 2 mm Hg | 14 ± 1 | -15 ± 2 | 34 ± 3 | -16 ± 2 | 41 ± 5 | – | – | – | –
3 | COc1cc2c(cc1OC)CC(NC(C)CCc1ccc(O)cc1)CC2 (stereo not shown) [A, 2-(3-p-hydroxyphenyl-1-methylpropyl) amino-6,7-dimethoxy-1,2,3,4-tetrahydronaphthalene] | 158 | 262 | 333 | 756 | -17 | 5 | -23 mm Hg | 10 | -27 | 14 | -40 | 27 | – | – | – | –
4 | CC(CCc1ccc(O)cc1)NC1CCc2cc(O)c(O)cc2C1 (stereo not shown) [B, 2-(3-p-hydroxyphenyl-1-methylpropyl) amino-6,7-dihydroxy-1,2,3,4-tetrahydronaphthalene] | 56.3 | 125 | 198 | 359 | -13 | -17 | 37 mm Hg | 0 | 57 | 15 | 75 | 32 | – | – | – | –
5 | NC1CCc2cc(O)c(O)cc2C1 (stereo not shown) [C, 2-amino-6,7-dihydroxy-1,2,3,4-tetrahydro-naphthalene] | – | – | – | – | 31 ± 9 | -12 ± 9 | 30 + 5 mm Hg | -12 ± 10 | 61 ± 10 | 21 ± 17 | 51 ± 5 | 5 ± 8 | 44.9 ± 3.3 | 119 ± 34.7 | 40.4 ± 3.1 | 75.6 ± 5.8
6 | CC(CCc1ccc(O)cc1)NCCc1ccc(O)c(O)c1 (racemic) [D, (±)-4-(2(3-p-hydroxyphenyl-1-methylpropyl)amino) ethyl-1,2-benzenediol] | 1.4 ± 0.2 | – | 4.4 | 4 ± 0.6 | 3 ± 1 | 3 ± 1 | 4 ± 1 mm Hg | 3 ± 1 | 4 ± 3 | 17 ± 5 | 3 ± 3 | 13 ± 2 | – | – | – | –
